The subject of data set [1] is Mycobacterium tuberculosis. As to the kind of experiment: Antimycobacterial activity against GFP expressing Mycobacterium tuberculosis H37Rv after 7 days in presence of EthR inhibitor BDM41906 by fluorescence assay. It is filed as functional. To be noted: 168 h.
The nature of data set [2]: Electrochemical behavior of the compound assessed as redox potential corrected toward normal hydrogen electrode at 10^-3 M by cyclic voltammetry. The note with it: 1000 µM. It is filed as physicochemical.
For data set [3], the system named is Mycobacterium tuberculosis. As to the kind of experiment: Ratio of MIC50 for GFP expressing Mycobacterium tuberculosis H37Rv in absence of EthR2 inhibitor SMARt-420 to MIC50 for GFP expressing Mycobacterium tuberculosis H37Rv in presence of EthR2 inhibitor SMARt-420. It is filed as functional.
Data set [4] deals with Mycobacterium tuberculosis. Kind of data set: Antimycobacterial activity against GFP expressing Mycobacterium tuberculosis H37Rv after 7 days in presence of EthR2 inhibitor SMARt-420 by fluorescence assay. It is filed as functional. The note with it: 168 h.
The subject of data set [5] is Mycobacterium tuberculosis. Kind of data set: Ratio of MIC50 for GFP expressing Mycobacterium tuberculosis H37Rv in absence of EthR inhibitor BDM41906 to MIC50 for GFP expressing Mycobacterium tuberculosis H37Rv in presence of EthR inhibitor BDM41906. It is filed as functional.
In data set [6] the test system is Mycobacterium tuberculosis. As to the kind of experiment: Antimycobacterial activity against GFP expressing Mycobacterium tuberculosis H37Rv after 7 days by fluorescence assay. It is filed as functional. To be noted: 168 h.

Converted amounts (≈) assume the structure as drawn. Where only a bound is given, the exact number is not on record here.

For the compound `NC(=S)c1ccnc(C2CC2)c1`, the MIC50 amounted to 1 µM in data set [1], 0.5 µM in data set [4] and 6.6 µM (≈ 1.18 µg/mL) in data set [6]. Also, the Activity in data set [2] came out at 1.4 V. The Ratio is recorded as 13 in data set [3] and 7 in data set [5].

For the compound `CC(C)CCc1cc(C(N)=S)ccn1`, the results for the MIC50 in data set [1], in data set [4] and in data set [6] were 0.1 µM, 0.1 µM and 6.6 µM (≈ 1.37 µg/mL), respectively. Also, the Activity in data set [2] was found to be 1.63 V. In addition, the Ratio in data set [3] and in data set [5] was 52 each time.

With `CCOC(=O)CCc1cc(C(N)=S)ccn1`, the MIC50 in data set [1] is 3.8 µM; in data set [4] it was 1.3 µM; in data set [6], > 30 µM. Besides, the values for the Ratio in data set [3] and in data set [5] were >23 and >8, respectively.

In the case of `CCc1cc(/C(N)=[S+]/[O-])ccn1`, the MIC50 in data set [1] turned out to be 0.4 µM; in data set [4], 0.3 µM; in data set [6], 10 µM (≈ 1.82 µg/mL). The Ratio in data set [3] stood at 33; in data set [5], 25.

In the case of `CCCCc1cc(C(N)=S)ccn1`, the MIC50 in data set [1] came out at 0.6 µM; in data set [4], 0.4 µM; in data set [6] it was 5.8 µM (≈ 1.13 µg/mL). Also, the Activity in data set [2] is listed as 1.39 V. Moreover, the values for the Ratio in data set [3] and in data set [5] were 15 and 10, respectively.

Regarding `CCCCc1cc(C(N)=O)ccn1`, the MIC50 in data set [1], in data set [4] and in data set [6] was > 30 µM throughout.

Consider `CC(C)Cc1cc(C(N)=S)ccn1`, for which the MIC50 in data set [1] is 9.1 µM; in data set [4], 3.8 µM; in data set [6], > 30 µM. Also, the Activity in data set [2] stood at 1.57 V. Also, the Ratio in data set [3] is reported as >8; in data set [5], >3.

As for `CC(c1ccccc1)c1cc(C(N)=S)ccn1` (centres undefined), the MIC50 was 0.6 µM in data set [1], 0.7 µM in data set [4] and > 30 µM in data set [6]. Moreover, the figures for the Ratio in data set [3] and in data set [5] were >43 and >50, respectively.

On to `CC(C)c1cc(C(N)=S)ccn1`, for which the figures for the MIC50 in data set [1], in data set [4] and in data set [6] were 0.1 µM, 0.2 µM and 21 µM (≈ 3.79 µg/mL), respectively. In data set [2], the Activity came out at 1.62 V. Besides, the results for the Ratio in data set [3] and in data set [5] were 105 and 210, respectively.

Consider `CCc1cc(C(N)=S)ccn1` [ETHIONAMIDE], for which the figures for the MIC50 in data set [1], in data set [4] and in data set [6] were 2 µM, 0.9 µM and 19 µM (≈ 3.16 µg/mL), respectively. In data set [2], the Activity was 1.46 V. For the same compound, the Ratio amounted to 21 in data set [3] and 10 in data set [5].

With `NC(=S)c1ccnc(Cc2cccc(F)c2)c1`, the results for the MIC50 in data set [1], in data set [4] and in data set [6] were 0.1 µM, 0.1 µM and 0.6 µM (≈ 0.148 µg/mL), respectively. The Ratio in data set [3] and in data set [5] was 6 in each case.

For the compound `NC(=S)c1ccnc(C2(C(F)(F)F)CC2)c1`, the MIC50 in data set [1] was 10 µM; in data set [4] it was 10 µM; in data set [6], > 30 µM. Besides, in data set [2], the Activity is 1.65 V. Moreover, the Ratio in data set [3] and in data set [5] was >3 in each case.

As for `NC(=S)c1ccnc(CC(F)(F)F)c1`, the MIC50 was 10 µM in data set [1], 1.5 µM in data set [4] and > 30 µM in data set [6]. The Activity in data set [2] was found to be 1.55 V. Also, the Ratio is >20 in data set [3] and >3 in data set [5].

For `N#Cc1cccc(Cc2cc(C(N)=S)ccn2)c1`, the MIC50 in data set [1] is 0.1 µM; in data set [4], 0.1 µM; in data set [6], 0.5 µM (≈ 0.127 µg/mL). The Ratio in data set [3] and in data set [5] was 5 each time.

In the case of `NC(=S)c1ccnc(Cc2ccccc2)c1`, the figures for the MIC50 in data set [1], in data set [4] and in data set [6] were 0.1 µM, 0.1 µM and 1.1 µM (≈ 0.251 µg/mL), respectively. Also, the Ratio in data set [3] and in data set [5] was 11 throughout.

As to `NC(=S)c1ccnc(Cc2ccc(F)cc2)c1`, the MIC50 in data set [1] was found to be 0.2 µM; in data set [4] it was 0.1 µM; in data set [6], 1 µM (≈ 0.246 µg/mL). Further, the Ratio in data set [3] turned out to be 10; in data set [5] it was 5.

`COc1ccc(Cc2cc(C(N)=S)ccn2)cc1`: the MIC50 in data set [1] stood at 0.3 µM; in data set [4], 0.2 µM; in data set [6], 2.4 µM (≈ 0.62 µg/mL). In addition, the Ratio in data set [3] amounted to 12; in data set [5], 8.

Regarding `CCC(C)c1cc(C(N)=S)ccn1` (centres undefined), the results for the MIC50 in data set [1], in data set [4] and in data set [6] were 0.2 µM, 0.2 µM and 30 µM (≈ 5.83 µg/mL), respectively. Besides, in data set [2], the Activity was determined as 1.48 V. In addition, the Ratio in data set [3] and in data set [5] was 150 in each case.

For the compound `CCCc1cc(C(N)=S)ccn1` [PROTIONAMIDE], the MIC50 in data set [1] worked out at 0.9 µM; in data set [4], 0.5 µM; in data set [6], 13 µM (≈ 2.34 µg/mL). The Activity in data set [2] amounted to 1.43 V. Besides, the Ratio was found to be 26 in data set [3] and 14 in data set [5].

In the case of `NC(=S)c1ccnc(CC2CCCCC2)c1`, the MIC50 in data set [1] was 0.6 µM; in data set [4], 0.7 µM; in data set [6] it was > 30 µM. In addition, the Activity in data set [2] is 1.62 V. The figures for the Ratio in data set [3] and in data set [5] were >43 and >50, respectively.

The record behind these values is ChEMBL document CHEMBL4265968, “Efficient analoging around ethionamide to explore thioamides bioactivation pathways triggered by boosters in Mycobacterium tuberculosis” (Eur J Med Chem, 2018).
